Experiments:
Type in all cases: biochemical
[1] = molecular target: T1, CDK1/cyclinB1 (Homo sapiens, UniProt P06493); experiment: Cyclin-dependent kinase activity assay (continuous ATP coupling assay), CDK1/cyclinB1; details: CDK1/cyclinB1 10 nM, ATP 200 μM, Histone1 copeptide 100 μM, 15 min preincubation, pH 7.5, 1% DMSO
T1 construct: purchased Carna Biosciences 04-102
Protocol: (§1) Cyclin-dependent kinase activity assay was measured by continuous ATP coupling assay in which ADP generated by kinase catalyzed phosphorylation was converted back to ATP by consuming phosphoenolpyruvate (PEP) and NADH catalyzed by pyruvate kinase/lactate dehydrogenase (PK/LDH). The assay compositions (see, Table 1) consist of one of the kinases, including CDK1/cyclinB1, CDK2/cyclinE1, CDK4/cyclinD3, and CDK6/cyclinD3 at the designated concentration, ATP at the corresponding Km of the kinase, copeptide and the ATP coupling system of PEP, NADH and PK/LDH. The assay was conducted in a reaction buffer of 20 mM Tris (pH 7.5) with 50 mM NaCl, 0.5 mM DTT and 0.04% BSA, and results were monitored continuously by fluorescence decrease of NADH with excitation at 340 nm and emission at 460 nm. Linear regression of the resulting reaction time traces gave reaction velocities.
(§2) For inhibition assay, compounds were first serial diluted in a 1:3 ratio from 10 μM to 0.05 nM using 10× reaction buffer. One of the CDK kinase was then introduced to compounds solution and incubated for 15 min. Finally, the compositions of ATP coupling system were introduced to the resulting solution to initiate the reaction. The final reaction mixture was in 1× reaction assay buffer with 1% DMSO. The half-maximal inhibition concentrations (IC50) for compounds were determined by fitting the plots of reaction velocity against compound concentration with 4-variable IC50 equation. The inhibition constants (Ki) were determined by fitting the same plots with quadratic/Morrison equation. Data were analyzed using commercially available software Graphpad Prism.
(§3) Exemplary results are presented as calculated IC50 values. • A: IC50≤10 nM • B: IC50>10 nM and IC50<100 nM • C: IC50≥100 nM

[2] = molecular target: T2, CDK2/cyclinE1 (Homo sapiens, UniProt P24941); experiment: Cyclin-dependent kinase activity assay (continuous ATP coupling assay), CDK2/cyclinE1; details: CDK2/cyclinE1 5 nM, ATP 300 μM, Rb copeptide 100 μM, 15 min preincubation, pH 7.5, 1% DMSO
T2 construct: purchased Carna Biosciences 04-165
Protocol: as §1, §2, §3

[3] = molecular target: T3, CDK4/cyclinD3 (Homo sapiens, UniProt P11802); experiment: Cyclin-dependent kinase activity assay (continuous ATP coupling assay), CDK4/cyclinD3; details: CDK4/cyclinD3 60 nM, ATP 500 μM, Rb copeptide 500 μM, 15 min preincubation, pH 7.5, 1% DMSO
T3 construct: purchased Carna Biosciences 04-105
Protocol: as §1, §2, §3

[4] = molecular target: T4, CDK6/cyclinD3 (Homo sapiens, UniProt Q00534); experiment: Cyclin-dependent kinase activity assay (continuous ATP coupling assay), CDK6/cyclinD3; details: CDK6/cyclinD3 25 nM, ATP 500 μM, Rb copeptide 500 μM, 15 min preincubation, pH 7.5, 1% DMSO
T4 construct: purchased Carna Biosciences 04-107
Protocol: as §1, §2, §3

T4 sequence (Q00534 whole entry): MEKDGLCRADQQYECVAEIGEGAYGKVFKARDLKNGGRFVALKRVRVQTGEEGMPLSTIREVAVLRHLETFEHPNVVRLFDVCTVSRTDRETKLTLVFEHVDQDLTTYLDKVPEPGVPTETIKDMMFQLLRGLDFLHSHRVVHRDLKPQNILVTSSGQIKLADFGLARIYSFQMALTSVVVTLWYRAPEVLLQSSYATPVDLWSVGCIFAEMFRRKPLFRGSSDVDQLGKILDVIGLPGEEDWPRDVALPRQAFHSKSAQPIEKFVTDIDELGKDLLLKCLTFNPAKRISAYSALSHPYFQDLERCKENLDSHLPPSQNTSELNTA
T4 sequence (P30281 whole entry partner): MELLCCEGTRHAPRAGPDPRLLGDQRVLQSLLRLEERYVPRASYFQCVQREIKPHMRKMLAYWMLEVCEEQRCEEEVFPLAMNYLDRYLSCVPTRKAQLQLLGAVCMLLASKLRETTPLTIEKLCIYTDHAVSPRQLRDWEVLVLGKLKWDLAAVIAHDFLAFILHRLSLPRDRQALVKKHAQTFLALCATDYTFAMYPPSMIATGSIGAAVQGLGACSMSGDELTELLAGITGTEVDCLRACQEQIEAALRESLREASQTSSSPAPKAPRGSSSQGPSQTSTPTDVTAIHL
T1 sequence (P06493 whole entry): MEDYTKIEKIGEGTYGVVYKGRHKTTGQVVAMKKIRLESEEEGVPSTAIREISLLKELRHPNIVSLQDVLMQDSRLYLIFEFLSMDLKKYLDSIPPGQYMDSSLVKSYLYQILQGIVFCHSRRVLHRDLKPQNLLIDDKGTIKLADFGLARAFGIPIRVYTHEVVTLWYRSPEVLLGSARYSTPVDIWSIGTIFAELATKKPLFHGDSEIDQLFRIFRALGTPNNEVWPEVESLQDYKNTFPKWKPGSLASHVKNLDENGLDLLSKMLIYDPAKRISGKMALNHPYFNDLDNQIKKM
T1 sequence (P14635 whole entry partner): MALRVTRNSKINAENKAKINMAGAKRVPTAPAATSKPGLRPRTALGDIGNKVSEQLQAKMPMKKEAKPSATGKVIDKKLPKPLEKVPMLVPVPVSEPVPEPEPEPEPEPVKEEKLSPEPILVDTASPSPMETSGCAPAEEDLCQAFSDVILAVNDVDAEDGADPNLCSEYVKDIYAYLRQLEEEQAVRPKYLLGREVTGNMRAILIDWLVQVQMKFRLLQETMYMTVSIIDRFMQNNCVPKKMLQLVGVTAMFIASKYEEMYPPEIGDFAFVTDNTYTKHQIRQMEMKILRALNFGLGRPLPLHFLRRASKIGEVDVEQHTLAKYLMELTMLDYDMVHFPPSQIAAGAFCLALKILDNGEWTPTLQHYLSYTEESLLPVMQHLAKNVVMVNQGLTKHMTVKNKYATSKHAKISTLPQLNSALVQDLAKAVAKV
T3 sequence (P11802 whole entry): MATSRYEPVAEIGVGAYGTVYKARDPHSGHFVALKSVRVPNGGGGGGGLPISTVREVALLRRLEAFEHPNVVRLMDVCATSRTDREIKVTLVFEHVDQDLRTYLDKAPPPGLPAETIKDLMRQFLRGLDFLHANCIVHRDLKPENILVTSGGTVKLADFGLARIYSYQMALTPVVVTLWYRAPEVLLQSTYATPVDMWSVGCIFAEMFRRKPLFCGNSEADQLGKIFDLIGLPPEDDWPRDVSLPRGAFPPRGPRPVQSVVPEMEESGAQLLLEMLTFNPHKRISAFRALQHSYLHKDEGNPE
T3 sequence (P30281 whole entry partner): as the sequence (P30281 whole entry partner) above

IC50 [1] [nM]	IC50 [2] [nM]	IC50 [3] [nM]	IC50 [4] [nM]	SMILES
≥ 100	10 to 100	10 to 100	≥ 100	CNS(=O)(=O)c1ccc(Nc2ncc(C(F)(F)F)c(-n3cc(C4=CCCC4)cn3)n2)cc1 [Example 12, 4-((4-(4-(cyclopent-1-en-1-yl)-1H-pyrazol-1-yl)-5-(trifluoromethyl)pyrimidin-2-yl)amino)-N-methylbenzenesulfonamide]
10 to 100	≤ 10	10 to 100	10 to 100	CNS(=O)(=O)c1ccc(Nc2ncc(C(F)(F)F)c(-n3cc(C4CCNCC4)cn3)n2)cc1 [Example 13]
≥ 100	10 to 100	10 to 100	≥ 100	CNS(=O)(=O)c1ccc(Nc2ncc(C(F)(F)F)c(-n3cc(C4CCN(C(C)=O)CC4)cn3)n2)cc1 [Example 14]
10 to 100	≤ 10	10 to 100	10 to 100	CNS(=O)(=O)c1ccc(Nc2ncc(C(F)(F)F)c(-n3cc(C4CNC4)cn3)n2)cc1 [Example 15]
≥ 100	≤ 10	≥ 100	≥ 100	CNS(=O)(=O)c1ccc(Nc2ncc(C(F)(F)F)c(-n3cccn3)n2)cc1 [Example 16, N-methyl-4-[[4-pyrazol-1-yl-5-(trifluoromethyl)pyrimidin-2-yl]amino]benzene sulfonamide]
≥ 100	≤ 10	≥ 100	≥ 100	[2H]C([2H])([2H])NS(=O)(=O)c1ccc(Nc2ncc(C(F)(F)F)c(-n3cccn3)n2)cc1 [Example 17]
≥ 100	≤ 10	≥ 100	≥ 100	NS(=O)(=O)c1ccc(Nc2ncc(C(F)(F)F)c(-n3cccn3)n2)cc1 [Example 18]
≥ 100	≤ 10	10 to 100	10 to 100	CS(=O)(=O)N1CCC(Nc2ncc(C(F)(F)F)c(-n3cccn3)n2)CC1 [Example 19]
≥ 100	10 to 100	≥ 100	≥ 100	CNS(=O)(=O)c1ccc(Nc2ncc(C(F)F)c(-n3cccn3)n2)cc1 [Example 20]
≥ 100	10 to 100	≥ 100	≥ 100	CNS(=O)(=O)c1ccc(Nc2ncc(F)c(-n3cccn3)n2)cc1 [Example 21]
≥ 100	10 to 100	≥ 100	≥ 100	CNS(=O)(=O)c1ccc(Nc2ncc(C)c(-n3cccn3)n2)cc1 [Example 22]
≥ 100	≥ 100	≥ 100	≥ 100	CNS(=O)(=O)c1ccc(Nc2nccc(-n3cccn3)n2)cc1 [Example 23]
≥ 100	10 to 100	≥ 100	≥ 100	CNS(=O)(=O)c1ccc(Nc2ncc(Cl)c(-n3cccn3)n2)cc1 [Example 24]
≥ 100	≤ 10	≥ 100	≥ 100	CNS(=O)(=O)c1ccc(Nc2ncc(Br)c(-n3cccn3)n2)cc1 [Example 25]
≥ 100	10 to 100	≥ 100	≥ 100	CNS(=O)(=O)c1ccc(Nc2ncc(C#N)c(-n3cccn3)n2)cc1 [Example 26]
≥ 100	≥ 100	≥ 100	≥ 100	CNS(=O)(=O)c1ccc(Nc2ncc(C(F)(F)F)c(-n3cccn3)n2)c(F)c1 [Example 27]
≥ 100	10 to 100	≥ 100	≥ 100	NS(=O)(=O)c1ccc(Nc2ncc(C(F)(F)F)c(-n3cccn3)n2)c(F)c1 [Example 28]
≥ 100	≥ 100	≥ 100	≥ 100	CC1(Nc2ncc(C(F)(F)F)c(-n3cccn3)n2)CCN(S(C)(=O)=O)CC1 [Example 29]
≥ 100	10 to 100	≥ 100	≥ 100	O=S(=O)(NC1CC1)c1ccc(Nc2ncc(C(F)(F)F)c(-n3cccn3)n2)cc1 [Example 30]

IC50 [1] [nM]	IC50 [2] [nM]	IC50 [3] [nM]	IC50 [4] [nM]	SMILES
≥ 100	≥ 100	≥ 100	≥ 100	CCS(=O)(=O)N1C2CCC1CC(Nc1ncc(C(F)(F)F)c(-n3cccn3)n1)C2 (stereo not shown) [Example 31]
≥ 100	≥ 100	≥ 100	≥ 100	CCS(=O)(=O)N1CC2(CC(Nc3ncc(C(F)(F)F)c(-n4cccn4)n3)C2)C1 [Example 32, 2-(ethyldioxo-λ6-sulfanyl)-6-{[4-(pyrazol-1-yl)-5-(trifluoromethyl)pyrimidin-2-yl]amino}-2-azaspiro[3.3]heptane]
≥ 100	≥ 100	≥ 100	≥ 100	CN1CCC(N2CCN(c3ccc(Nc4ncc(C(F)(F)F)c(-n5cccn5)n4)cc3)CC2)CC1 [Example 33]
≥ 100	≥ 100	≥ 100	≥ 100	FC(F)(F)c1cnc(Nc2ccc(S(F)(F)(F)(F)F)cc2)nc1-n1cccn1 [Example 34]
≥ 100	≤ 10	10 to 100	≥ 100	CN1CCC(NS(=O)(=O)c2ccc(Nc3ncc(C(F)(F)F)c(-n4cccn4)n3)cc2)CC1 [Example 35]
10 to 100	≤ 10	≥ 100	≥ 100	O=S(=O)(NCCO)c1ccc(Nc2ncc(C(F)(F)F)c(-n3cccn3)n2)cc1 [Example 36, 4-((4-(1H-pyrazol-1-yl)-5-(trifluoromethyl)pyrimidin-2-yl)amino)-N-(2-hydroxyethyl) benzene sulfonamide]
≥ 100	≤ 10	10 to 100	10 to 100	O=S(=O)(c1ccc(Nc2ncc(C(F)(F)F)c(-n3cccn3)n2)cc1)N1CCNCC1 [Example 37]
≥ 100	10 to 100	≥ 100	≥ 100	CN1CCN(S(=O)(=O)c2ccc(Nc3ncc(C(F)(F)F)c(-n4cccn4)n3)cc2)CC1 [Example 38]
≥ 100	≥ 100	≥ 100	≥ 100	O=C1NCc2cc(Nc3ncc(C(F)(F)F)c(-n4cccn4)n3)ccc21 [Example 39]
≥ 100	≤ 10	≥ 100	≥ 100	O=S(=O)(NC1COC1)c1ccc(Nc2ncc(C(F)(F)F)c(-n3cccn3)n2)cc1 [Example 40]
≥ 100	10 to 100	≥ 100	≥ 100	O=S(=O)(NC1CC(F)(F)C1)c1ccc(Nc2ncc(C(F)(F)F)c(-n3cccn3)n2)cc1 [Example 41]
≥ 100	≥ 100	≥ 100	≥ 100	O=S1(=O)NCc2cc(Nc3ncc(C(F)(F)F)c(-n4cccn4)n3)ccc21 [Example 42, 1,1-dioxo-N-[4-pyrazol-1-yl-5-(trifluoromethyl)pyrimidin-2-yl]-2,3-dihydro-1,2-benzothiazol-5-amine]
10 to 100	≤ 10	10 to 100	10 to 100	CN(C)CCNS(=O)(=O)c1ccc(Nc2ncc(C(F)(F)F)c(-n3cccn3)n2)cc1 [Example 43]
≥ 100	10 to 100	≥ 100	≥ 100	CNS(=O)(=O)c1ccc(Nc2ncc(C(F)(F)F)c(-n3cc(Br)cn3)n2)cc1 [Example 44]
≥ 100	10 to 100	≥ 100	≥ 100	CNS(=O)(=O)c1ccc(Nc2ncc(C(F)(F)F)c(-n3cc(F)cn3)n2)cc1 [Example 45]
≥ 100	≤ 10	10 to 100	≥ 100	CNS(=O)(=O)c1ccc(Nc2ncc(C(F)(F)F)c(-n3cc(C)cn3)n2)cc1 [Example 46]
10 to 100	10 to 100	≥ 100	≥ 100	CNS(=O)(=O)c1ccc(Nc2ncc(C(F)(F)F)c(-n3cc(C(F)(F)F)cn3)n2)cc1 [Example 47]
≥ 100	10 to 100	≤ 10	10 to 100	CNS(=O)(=O)c1ccc(Nc2ncc(C(F)(F)F)c(-n3cc(CC(C)C)cn3)n2)cc1 [Example 48]
